Test results reported in patent US8476264B2, “N-(3-(2-amino-6,6-difluoro-4,4A,5,6,7,7A-hexahydro-cyclopenta[E][1,3]oxazin-4-yl)-phenylamides as BACE1 inhibitors” (Hoffmann-La Roche Inc., priority 2011, dated 2013).

How the values were obtained:
[1] = in vivo effect; conditions: % of control @ 30 mg/kg p.o.
[2] = target: T1, hERG channel (Homo sapiens, UniProt Q12809); assay: PatchXpress hERG inhibition assay; type: cell-based; conditions: @ 1 μM; CHO cells transfected with hERG, automated patch clamp
T1 construct: expressed in transfected cells; host or cells: CHO cells
T1 sequence (Q12809 whole entry): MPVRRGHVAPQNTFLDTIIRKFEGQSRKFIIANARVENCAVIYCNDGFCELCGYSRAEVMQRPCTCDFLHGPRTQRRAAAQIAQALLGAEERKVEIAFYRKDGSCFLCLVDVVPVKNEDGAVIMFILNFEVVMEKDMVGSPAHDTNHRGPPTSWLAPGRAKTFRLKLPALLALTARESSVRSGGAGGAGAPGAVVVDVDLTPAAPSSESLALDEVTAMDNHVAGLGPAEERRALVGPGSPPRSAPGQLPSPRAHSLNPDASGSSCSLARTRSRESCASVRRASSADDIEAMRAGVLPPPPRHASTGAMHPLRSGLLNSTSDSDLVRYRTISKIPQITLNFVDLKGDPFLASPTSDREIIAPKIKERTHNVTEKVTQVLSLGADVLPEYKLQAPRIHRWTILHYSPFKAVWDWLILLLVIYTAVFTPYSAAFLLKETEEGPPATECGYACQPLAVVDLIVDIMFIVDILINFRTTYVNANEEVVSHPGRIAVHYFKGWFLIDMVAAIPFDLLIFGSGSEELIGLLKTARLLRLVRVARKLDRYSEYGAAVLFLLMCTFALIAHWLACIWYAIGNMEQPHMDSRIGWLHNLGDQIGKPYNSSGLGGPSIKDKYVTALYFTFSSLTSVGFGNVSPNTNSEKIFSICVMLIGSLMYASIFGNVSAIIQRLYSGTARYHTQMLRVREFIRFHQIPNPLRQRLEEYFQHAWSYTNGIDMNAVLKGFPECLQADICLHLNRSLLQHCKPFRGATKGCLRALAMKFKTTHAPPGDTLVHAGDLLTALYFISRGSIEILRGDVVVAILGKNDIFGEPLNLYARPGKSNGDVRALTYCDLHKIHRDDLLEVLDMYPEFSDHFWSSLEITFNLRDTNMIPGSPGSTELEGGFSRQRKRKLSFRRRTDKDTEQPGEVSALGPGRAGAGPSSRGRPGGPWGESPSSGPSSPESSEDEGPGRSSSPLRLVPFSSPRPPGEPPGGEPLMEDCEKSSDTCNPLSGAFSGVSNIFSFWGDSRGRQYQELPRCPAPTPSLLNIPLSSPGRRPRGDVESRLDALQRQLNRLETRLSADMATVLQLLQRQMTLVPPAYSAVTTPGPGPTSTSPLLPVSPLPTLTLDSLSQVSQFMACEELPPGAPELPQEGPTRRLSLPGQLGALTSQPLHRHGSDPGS
Experimental: PatchXpress hERG Inhibition Assay
The detailed method to quantify hERG channel inhibition by the automated patch clamp system PatchXpress® 7000A (Molecular Devices, Sunnyvale, Calif.) has been described by Guo et al. (J of Pharmacol & Tox Methods, (2005) 52(1):123-35). In brief, Chinese hamster ovary (CHO) cells transfected with the human ether-a-go-go-related gene (hERG) was cultured in Ex-cell 302 media supplemented with 10% fetal bovine serum, 2 mM glutamine and 0.25 mg/ml geneticin and maintained in a CO2 incubator at 37° C. For patch clamp electrophysiology, the external buffer contained (in mM): 150 NaCl, 10 Hepes, 4 KCl, 1.2 CaCl2, 1 MgCl2, pH 7.4 adjusted with […] and the internal recording solution contained (in mM): 140 KCl, 6 EGTA, 5 Hepes, MgCl2, 5 ATP-Na2, pH 7.2 adjusted with KOH. Once the cell was loaded in the recording chamber and formed a giga ohm seal with the planar glass electrodes (Sealchip™), a whole-cell configuration was achieved by rupturing the cell membrane. The membrane potential was then clamped at −80 mV and the hERG channel activated by a 1-second depolarizing pulse delivered at 0.1 Hz, the hERG current was measured during the 500 ms-repolarizing pulse to −40 mV. After an acceptable hERG current recording was obtained, the cell was first exposed to 0.3% DMSO as the vehicle control, followed by the test article in three ascending, full-log interval concentrations and finally E-4031 at 1 μM (as the positive control) to block the hERG current completely. […] The inhibition of hERG current at each concentration was normalized to that recorded in the vehicle control, and fitted with Hill equation to calculate IC20 and/or IC50.

[3] = target: T2, CYP2C9 (Homo sapiens, UniProt P11712); assay: CYP inhibition assay, CYP2C9; type: in vitro ADME; conditions: human liver microsomes, diclofenac 4' hydroxylase; read-out: CYP IC50 2C9
T2 construct: 0.2 mg/ml pooled human liver microsomes; from tissue; host or cells: pooled human liver microsomes
T2 sequence (P11712 whole entry): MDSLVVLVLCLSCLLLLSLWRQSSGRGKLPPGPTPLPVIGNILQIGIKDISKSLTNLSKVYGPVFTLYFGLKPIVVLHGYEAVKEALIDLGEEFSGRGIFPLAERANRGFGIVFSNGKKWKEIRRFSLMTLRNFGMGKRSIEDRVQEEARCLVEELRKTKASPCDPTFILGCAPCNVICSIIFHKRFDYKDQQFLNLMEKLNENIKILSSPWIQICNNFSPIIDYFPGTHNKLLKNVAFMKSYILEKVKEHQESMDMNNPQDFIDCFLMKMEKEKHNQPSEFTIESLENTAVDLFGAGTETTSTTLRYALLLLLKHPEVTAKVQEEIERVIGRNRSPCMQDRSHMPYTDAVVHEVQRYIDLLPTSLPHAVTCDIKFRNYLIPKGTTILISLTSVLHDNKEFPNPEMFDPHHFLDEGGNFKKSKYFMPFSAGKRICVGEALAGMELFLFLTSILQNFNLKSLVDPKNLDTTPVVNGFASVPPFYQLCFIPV
Experimental: (§1) Inhibition of cytochromes P450 (CYPs) 2C9, 2D6 and 3A4 was assessed using human liver microsomes and CYP-selective substrate metabolism reactions. 50 μl incubations were made up containing (finally) 0.2 mg/ml pooled human liver microsomes, 5 μM substrate (diclofenac for CYP2C9 [4′ hydroxylase], dextromethorphan for CYP2D6 [O-demethylase] or midazolam for CYP3A4 [1′ hydroxylase]), 0.25 μL DMSO containing test inhibitor and NADPH regenerating system. Test inhibitor concentrations of 50, 16.7, 5.6, 1.9, 0.6 and 0.2 μM were assessed in singlicate. Incubations were pre-warmed to 37° C. for 10 minutes before initiation by addition of NADPH regenerating system. Incubations were quenched after 5 minutes (20 minutes for dextromethorphan) by addition of 50 μl cold acetonitrile containing 20 ng/ml 4-OH-diclofenac-13C6, 20 ng/mL dextrorphan-D3 and 20 ng/mL 1-OH-midazolam-D4. Quenched incubates were stored at −20° C. for at least 1 hour before centrifugation (20,000×g, 20 minutes). Supernatants were removed and diluted 1:1 with water prior to analysis using a RapidFire sample injector system and API4000 mass spectrometer. Peak areas for substrate, metabolite and stable-labelled metabolite standard were determined using MS/MS. The peak area ratios between the metabolite generated by the enzymatic reaction and the internal standard were used in subsequent calculations. The percentage of (DMSO) control activity was calculated for each incubate and IC50 values estimated by non-linear regression. Sulfaphenazole, quinidine or ketoconazole were tested in each CYP2C9, CYP2D6 or CYP3A4 inhibition experiment, respectively, to ensure assay sensitivity and reproducibility. (Validated assays for human cytochrome P450 activities, R. L. Walsky and R. S. Obach, Drug Metabolism and Disposition 32: 647-660, 2004. and S. Fowler and H. Zhang, The AAPS Journal, Vol. 10, No. 2, 410-424, 2008.)

[4] = target: T3, CYP2D6 (Homo sapiens, UniProt P10635); assay: CYP inhibition assay, CYP2D6; type: in vitro ADME; conditions: human liver microsomes, dextromethorphan O-demethylase; read-out: CYP IC50 2D6
T3 construct: 0.2 mg/ml pooled human liver microsomes; from tissue; host or cells: pooled human liver microsomes
T3 sequence (P10635 whole entry): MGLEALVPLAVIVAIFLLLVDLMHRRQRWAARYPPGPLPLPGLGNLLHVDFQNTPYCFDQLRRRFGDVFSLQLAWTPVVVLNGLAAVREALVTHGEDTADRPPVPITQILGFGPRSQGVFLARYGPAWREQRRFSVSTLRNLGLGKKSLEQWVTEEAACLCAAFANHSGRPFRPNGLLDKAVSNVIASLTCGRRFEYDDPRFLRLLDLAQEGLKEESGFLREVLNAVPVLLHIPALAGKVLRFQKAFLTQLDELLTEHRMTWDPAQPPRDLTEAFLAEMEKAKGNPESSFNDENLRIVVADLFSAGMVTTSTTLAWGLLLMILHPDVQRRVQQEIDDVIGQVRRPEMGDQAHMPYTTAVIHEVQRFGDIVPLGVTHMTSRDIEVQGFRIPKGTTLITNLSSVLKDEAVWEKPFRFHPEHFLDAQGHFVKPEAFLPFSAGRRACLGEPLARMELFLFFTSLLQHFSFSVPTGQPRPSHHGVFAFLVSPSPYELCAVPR
Experimental: as §1

[5] = target: T4, CYP3A4 (Homo sapiens, UniProt P08684); assay: CYP inhibition assay, CYP3A4; type: in vitro ADME; conditions: human liver microsomes, midazolam 1' hydroxylase; read-out: CYP IC50 3A4
T4 construct: 0.2 mg/ml pooled human liver microsomes; from tissue; host or cells: pooled human liver microsomes
T4 sequence (P08684 whole entry): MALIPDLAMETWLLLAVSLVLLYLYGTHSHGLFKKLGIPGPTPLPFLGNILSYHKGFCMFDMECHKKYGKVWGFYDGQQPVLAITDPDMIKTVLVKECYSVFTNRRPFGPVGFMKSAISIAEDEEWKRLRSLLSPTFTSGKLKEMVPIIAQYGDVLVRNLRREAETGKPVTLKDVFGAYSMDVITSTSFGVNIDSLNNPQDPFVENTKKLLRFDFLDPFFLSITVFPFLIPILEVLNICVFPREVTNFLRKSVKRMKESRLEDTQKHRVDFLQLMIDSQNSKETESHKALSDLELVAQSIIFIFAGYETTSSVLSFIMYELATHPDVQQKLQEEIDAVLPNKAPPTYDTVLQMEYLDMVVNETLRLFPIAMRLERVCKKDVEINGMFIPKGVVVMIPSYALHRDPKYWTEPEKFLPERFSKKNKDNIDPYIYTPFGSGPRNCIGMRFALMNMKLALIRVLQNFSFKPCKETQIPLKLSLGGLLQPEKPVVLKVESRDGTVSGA
Experimental: as §1

[6] = target: T5, cathepsin D (from human liver) (Homo sapiens, UniProt P07339); assay: Cathepsin D fluorescent substrate kinetic assay; type: biochemical; conditions: pH 5.5, substrate […]-MR121
T5 construct: cathepsin D (from human liver, Calbiochem) diluted in assay buffer; purchased Calbiochem; host or cells: purified from human liver
T5 sequence (P07339 65-162 limits assumed): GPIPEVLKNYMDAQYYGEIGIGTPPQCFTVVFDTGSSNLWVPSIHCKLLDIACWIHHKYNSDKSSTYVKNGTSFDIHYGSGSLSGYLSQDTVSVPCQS
T5 sequence (P07339 169-412 limits assumed): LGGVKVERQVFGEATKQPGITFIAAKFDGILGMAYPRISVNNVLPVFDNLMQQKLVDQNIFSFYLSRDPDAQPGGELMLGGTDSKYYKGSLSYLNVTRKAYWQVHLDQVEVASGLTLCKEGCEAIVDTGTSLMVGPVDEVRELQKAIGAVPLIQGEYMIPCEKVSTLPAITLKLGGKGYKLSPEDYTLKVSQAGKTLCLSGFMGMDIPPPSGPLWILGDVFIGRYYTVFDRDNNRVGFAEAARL
Text: Cathepsin D and Cathepsin E Fluorescent Substrate Kinetic Assays
The MR121 fluorescence assays described below are based on the fact that MR121 forms a non-fluorescent ground state complex with tryptophan. In solution this formation occurs at millimolar concentrations of tryptophan. The mechanism can be used to design a generic biochemical assay for proteases. A substrate peptide is labeled at the N-terminus with tryptophan and at the C-terminus with the fluorophore MR121 (for cathepsin D the 10 amino acid peptide […]-MR121 was used; for cathepsin E, MR121-[…] was used). In absence of protease activity, the substrates remain intact and the MR121 fluorescence is reduced by the high local Trp-concentration. If the substrates are cleaved by the enzymes the MR121 fluorescence is recovered.
The fluorescent substrate cathepsin D and cathepsin E kinetic assays were performed at room temperature in 384-well microtiter plates (black with clear flat bottom, non binding surface plates from Corning) in a final volume of 51 μl. The test compounds were serially diluted in DMSO (15 concentrations, ⅓ dilution steps) and 1 μl of diluted compounds were mixed for 10 min with 40 μl of cathepsin D (from human liver, Calbiochem) diluted in assay buffer (100 mM sodium acetate, 0.05% BSA, pH 5.5; final concentration: 200 nM) or with 40 μl of recombinant human cathepsin E (R&D Systems) diluted in assay buffer (100 mM sodium acetate, 0.05% BSA, pH 4.5; final concentration: 0.01 nM). After addition of 10 μl of the cathepsin D substrate […]-MR121 diluted in cathepsin D assay buffer (final concentration: 300 nM) or […] cathepsin E substrate MR121-[…] diluted in cathepsin E assay buffer (final concentration: 300 nM), the plates were strongly shaken for 2 minutes. The enzymatic reaction was followed in a plate: vision reader (Perkin Elmer) (excitation wavelength: 630 nm; emission: 695 nm) for at least 30 minutes in a kinetic measurement detecting an increase of MR121 fluorescence during the reaction time. The slope in the linear range of the kinetic was calculated and the IC50 of the test compounds were determined using a four parameter equation for curve fitting.

COc1cnc(C(=O)Nc2ccc(F)c([C@@]3(C(F)F)N=C(N)O[C@@H]4CC(F)(F)C[C@@H]43)c2)cn1 [Example 42, 5-Methoxy-pyrazine-2-carboxylic acid [(S)-3-((1R,2R)-2-amino-4-difluoromethyl-6,6-difluoro-4,4a,5,6,7,7a-hexahydro-cyclopenta[e][1,3]oxazin-4-yl)-4-fluoro-phenyl]-amide]
in vivo effect [1]: A (less than 50% of control @ 30 mg/kg p.o.)
hERG inhibition [2]: B (less than 15% inhibition @ 1 μM)
IC50 [3]: > 10 µM
IC50 [4]: > 10 µM
IC50 [5]: > 10 µM
IC50 [6]: > 150 µM

NC1=N[C@](CF)(c2cc(NC(=O)c3cnc(C(F)F)cn3)ccc2F)[C@H]2CC(F)(F)C[C@H]2O1 [Example 24, 5-Difluoromethyl-pyrazine-2-carboxylic acid [(S)-3-((1R,2R)-2-amino-6,6-difluoro-4-fluoromethyl-4,4a,5,6,7,7a-hexahydro-cyclopenta[e][1,3]oxazin-4-yl)-4-fluoro-phenyl]-amide]
in vivo effect [1]: A (less than 50% of control @ 30 mg/kg p.o.)
hERG inhibition [2]: B (less than 15% inhibition @ 1 μM)
IC50 [3]: > 10 µM
IC50 [4]: > 10 µM
IC50 [5]: > 10 µM
IC50 [6]: > 200 µM

NC1=N[C@](CF)(c2cc(NC(=O)c3ccc(F)cn3)ccc2F)[C@H]2CC(F)(F)C[C@H]2O1 [Example 7, 5-Fluoro-pyridine-2-carboxylic acid [(S)-3-((1R,2R)-2-amino-6,6-difluoro-4-fluoromethyl-4,4a,5,6,7,7a-hexahydro-cyclopenta[e][1,3]oxazin-4-yl)-4-fluoro-phenyl]-amide]
in vivo effect [1]: A (less than 50% of control @ 30 mg/kg p.o.)
hERG inhibition [2]: A (less than 20% inhibition @ 1 μM)
IC50 [3]: > 10 µM
IC50 [4]: > 10 µM
IC50 [5]: > 10 µM
IC50 [6]: 93 µM

N#Cc1ccc(C(=O)Nc2ccc(F)c([C@@]3(CF)N=C(N)O[C@@H]4CC(F)(F)C[C@@H]43)c2)nc1 [Example 3, 5-Cyano-pyridine-2-carboxylic acid [(S)-3-((1R,2R)-2-amino-6,6-difluoro-4-fluoromethyl-4,4a,5,6,7,7a-hexahydro-cyclopenta[e][1,3]oxazin-4-yl)-4-fluoro-phenyl]-amide]
in vivo effect [1]: A (less than 50% of control @ 30 mg/kg p.o.)
hERG inhibition [2]: B (less than 15% inhibition @ 1 μM)
IC50 [3]: > 10 µM
IC50 [4]: > 10 µM
IC50 [5]: > 10 µM
IC50 [6]: > 200 µM

N#Cc1ccc(C(=O)Nc2ccc(F)c([C@@]3(C(F)F)N=C(N)O[C@@H]4CC(F)(F)C[C@@H]43)c2)nc1 [Example 36, 5-Cyano-pyridine-2-carboxylic acid [(S)-3-((1R,2R)-2-amino-4-difluoromethyl-6,6-difluoro-4,4a,5,6,7,7a-hexahydro-cyclopenta[e][1,3]oxazin-4-yl)-4-fluoro-phenyl]-amide]
in vivo effect [1]: A (less than 50% of control @ 30 mg/kg p.o.)
hERG inhibition [2]: B (less than 15% inhibition @ 1 μM)
IC50 [3]: > 10 µM
IC50 [4]: > 10 µM
IC50 [5]: > 10 µM
IC50 [6]: > 200 µM
